Measured values as given in paper PMC6271245, “Discovery of Gramine Derivatives That Inhibit the Early Stage of EV71 Replication in Vitro” (Molecules, 2014).
Converted amounts (≈) assume the structure as drawn.

How the values were obtained:
Type in all cases: cell-based
Enterovirus 71 (EV71) [1] = test: Inhibition of EV71-induced cytopathogenicity (CPE) in Vero cells, MTT; settings: for EC50: Enterovirus A, read-out: EC50 (µg/mL) Vero; for EC50 / EC50 (µg/mL) Vero: concentration for 50% protection from virus-induced cytopathogenicity, Vero cells, 100 TCID50 EV71, 48 h, MTT, mean ± SD of three experiments
Description: (§1) The antiviral activities of gramine and its derivatives against EV71 based on inhibition of virus-induced cytopathogenicity effects (CPEs) in African green monkey kidney cells (Vero) and rhabdomyosarcoma cells (RD) were examined. The cytotoxic effects were also evaluated. The inhibitory activities expressed as half maximal effective concentration (EC50) values and selectivity indexes (SI) for the target compounds are presented in Table 1, and the dose-dependent antiviral effects are shown in Figure 1A.
Figure 1 Gramine and its synthetic derivatives inhibited virus-induced CPE. (A) Vero cells were infected with 100 TCID50 of EV71 mixed with serial dilutions of tested compounds for 1.5 h at 37 °C; the inoculum was aspirated and cells were incubated with DMEM/tested compounds at 37 °C, 5% CO2 for 48 h pi. The viability of the cells was determined with an MTT assay; (B) Morphology image of Vero and RD cells treated with compounds 4a, 4i, 4r, and 4s for 48 h pi. (magnification, 20×).
(§2) The activity of compounds against EV71 was determined based on the inhibition of virus-induced cytopathogenicity effects (CPEs) in acutely infected cells. Vero and RD cells grown to 90% confluency in 96-well dishes were washed with phosphate buffered saline (PBS) and infected with 100 TCID50 of EV71 mixed with serial dilutions of tested compounds for 1.5 h at 37 °C. The inoculum was aspirated and cells were incubated with DMEM and test compounds at 37 °C, 5% CO2 for 48 h. The CPEs were observed microscopically and the viability of the cells was determined with a 3-(4,5-dimethylthiazol-2-yl)-2,5-diphenyltetrazolium bromide (MTT) assay. The concentrations required for the test compounds to achieve 50% protection from virus-induced cytopathogenicity (EC50) were determined. Adverse effects of these compounds on the host cells were also assessed by means of the MTT-method; by exposing uninfected cells to various concentrations of test compounds for 48 h at 37 °C, the viability of the cells was detected. The 50% cell cytotoxic concentrations (CC50) of compounds were calculated with the SPSS software (SPSS, Chicago, IL, USA). Selectivity indexes were calculated as the ratio of CC50: EC50.
(§3) Cell viability was assessed by an MTT assay, which functions based on the reduction of a MTT into formazan dye by active mitochondria. The cells were treated with 100 µL of MTT (1 mg/mL, Sigma, St. Louis, MO, USA) and incubated at 37 °C for 4 h. The reaction was blocked by DMSO and measured in a microplate reader (Bio-Tek Instruments, Winooski, VT, USA) at 492 nm. The untreated control was arbitrarily set as 100%.

Enterovirus 71 (EV71) [2] = test: Inhibition of EV71-induced cytopathogenicity (CPE) in RD cells, MTT; settings: concentration for 50% protection from virus-induced cytopathogenicity, RD cells, 100 TCID50 EV71, 48 h, MTT; for EC50: Enterovirus A, read-out: EC50 (µg/mL) RD
Description: as §1, §2, §3

[3] = Cytotoxicity on uninfected Vero cells, MTT; settings: African green monkey
Description: as §1, §2, §3

[4] = Cytotoxicity on uninfected RD cells, MTT; settings: human, concentration reducing cell viability by 50%
Description: Human RD cells and Vero cells were maintained in Dulbecco’s modified Eagle’s medium (Gibco-Invitrogen, Carlsbad, CA, USA) supplemented with 10% fetal bovine serum (FBS; Gibco), 100 U/mL of penicillin and streptomycin, and 2 mM L-glutamine. Enterovirus 71 (EV71) was kindly provided by Zhanqiu Yang (Institute of Medical Virology, School of Medicine, Wuhan University, China) and propagated in RD cell lines. The virus titer was determined by the standard method of median tissue culture infective dose (TCID50) on RD cells.
as §2, §3

[5] = concentration reducing cell viability by 50%, uninfected Vero cells, 48 h, MTT, read-out: CC50 (µg/mL) Vero

EC50 (Enterovirus 71 (EV71) [1]) [µg/mL]	EC50 (Enterovirus 71 (EV71) [2]) [µg/mL]	EC50 (µg/mL) Vero (Enterovirus 71 (EV71) [1])	EC50 (µg/mL) RD (Enterovirus 71 (EV71) [2])	Structure (SMILES)	CC50 at 48 h [3, 5] [µg/mL]	CC50 at 48 h [4] [µg/mL]	anti-EV71 activity (Enterovirus 71 (EV71) [1]; inhibition of EV71-induced CPEs compared with virus control)	CC50 at 48 h [3] [µg/mL]
2.1 ± 0.7 (≈ 5.39 µM)	3.2 ± 0.4 (≈ 8.21 µM)	–	–	Clc1ccccc1C(Nc1nc2ccccc2s1)c1c[nH]c2ccccc12 (centres unmarked) [Compound 4p]	6.6 ± 1.4 (≈ 16.9 µM)	11.7 ± 4.6 (≈ 30 µM)	–	–
16.9 ± 1.5 (≈ 53.8 µM)	9.5 ± 1.7 (≈ 30.2 µM)	–	–	Cn1cc(C(Nc2ccccn2)c2ccncc2)c2ccccc21 (centres unmarked) [Compound 4o]	72.8 ± 18.8 (≈ 232 µM)	39.2 ± 11.6 (≈ 125 µM)	–	–
1.9 ± 0.6 (≈ 6.52 µM)	2.6 ± 0.8 (≈ 8.92 µM)	–	–	Fc1ccc(C(c2c[nH]c3ccccc23)n2cccn2)cc1 (centres unmarked) [Compound 4t]	10.5 ± 2.4 (≈ 36 µM)	12.6 ± 3.5 (≈ 43.3 µM)	–	–
1.8 ± 1.1 (≈ 4.82 µM)	2.7 ± 1.2 (≈ 7.23 µM)	–	–	Fc1ccccc1C(Nc1nc2ccccc2s1)c1c[nH]c2ccccc12 (centres unmarked) [Compound 4q]	10.8 ± 2.5 (≈ 28.9 µM)	14.5 ± 3.6 (≈ 38.8 µM)	–	–
44.6 ± 13.5 (≈ 183 µM)	32.1 (≈ 131 µM)	–	–	NC(=O)c1ncn([C@@H]2O[C@H](CO)[C@@H](O)[C@H]2O)n1 [ribavirin, reference compound]	–	436 (≈ 1780 µM)	–	> 500
2.3 ± 0.3 (≈ 7.87 µM)	3.1 ± 1.3 (≈ 10.6 µM)	–	–	Fc1ccc(C(c2c[nH]c3ccccc23)n2cncn2)cc1 (centres unmarked) [Compound 4u]	4.9 ± 0.6 (≈ 16.8 µM)	6.8 ± 2.5 (≈ 23.3 µM)	–	–

Further lines, the molecule ahead of its results:

Structure (SMILES)	EC50 (Enterovirus 71 (EV71) [1]) [µg/mL]	EC50 (Enterovirus 71 (EV71) [2]) [µg/mL]	EC50 (µg/mL) Vero (Enterovirus 71 (EV71) [1])	EC50 (µg/mL) RD (Enterovirus 71 (EV71) [2])	CC50 at 48 h [3, 5] [µg/mL]	CC50 at 48 h [4] [µg/mL]	anti-EV71 activity (Enterovirus 71 (EV71) [1]; inhibition of EV71-induced CPEs compared with virus control)	CC50 at 48 h [3] [µg/mL]
Fc1ccc(C(Nc2ccccn2)c2c[nH]c3ccccc23)cc1 (centres unmarked) [Compound 4e]	7.3 ± 2.6 (≈ 23 µM)	6.2 ± 2.8 (≈ 19.5 µM)	–	–	40.7 ± 2.5 (≈ 128 µM)	29.5 ± 3.3 (≈ 93 µM)	–	–
c1ccc(NC(c2ccncc2)c2c[nH]c3ccccc23)nc1 (centres unmarked) [Compound 4n]	–	–	— (less than 50% inhibition)	— (less than 50% inhibition)	121 ± 20.5 (≈ 402 µM)	> 200	–	–
FC(F)(F)c1ccc(C(Nc2ccccn2)c2c[nH]c3ccccc23)cc1 (centres unmarked) [Compound 4j]	8.7 ± 2.9 (≈ 23.7 µM)	8.3 ± 3.5 (≈ 22.6 µM)	–	–	15.8 ± 3.3 (≈ 43 µM)	17.8 ± 2.6 (≈ 48.5 µM)	–	–
Cn1cc(C(Nc2ccccn2)c2ccccn2)c2ccccc21 (centres unmarked) [Compound 4m]	–	–	— (less than 50% inhibition)	— (less than 50% inhibition)	> 200	> 200	–	–
Clc1ccc(C(Nc2ccccn2)c2c[nH]c3ccccc23)cc1 (centres unmarked) [Compound 4c]	5.6 ± 1.3 (≈ 16.8 µM)	6.7 ± 0.8 (≈ 20.1 µM)	–	–	22.4 ± 3.6 (≈ 67.1 µM)	24.6 ± 3.5 (≈ 73.7 µM)	–	–
Cn1cc(C(Nc2ccccn2)c2ccc(Cl)cc2)c2ccccc21 (centres unmarked) [Compound 4g]	4.9 ± 0.7 (≈ 14.1 µM)	4.9 ± 1.2 (≈ 14.1 µM)	–	–	38.6 ± 5.7 (≈ 111 µM)	32 ± 1.8 (≈ 92 µM)	–	–
Cn1cc(C(Nc2ccccn2)c2ccc(C(F)(F)F)cc2)c2ccccc21 (centres unmarked) [Compound 4k]	13.2 ± 1.3 (≈ 34.6 µM)	9.8 ± 3.4 (≈ 25.7 µM)	–	–	18.5 ± 4.8 (≈ 48.5 µM)	27.6 ± 8.3 (≈ 72.4 µM)	–	–
Cn1cc(C(Nc2ccccn2)c2ccccc2F)c2ccccc21 (centres unmarked) [Compound 4h]	10.5 ± 2.1 (≈ 31.7 µM)	11.2 ± 4.6 (≈ 33.8 µM)	–	–	89.3 ± 12.6 (≈ 269 µM)	52.2 ± 8.3 (≈ 158 µM)	–	–
CN(C)Cc1c[nH]c2ccccc12 [Gramine]	–	–	— ^d (less than 50% inhibition)	— (less than 50% inhibition)	–	85 ± 16.3 (≈ 488 µM)	not observed	101 ± 5.6 (≈ 582 µM)
Fc1ccccc1C(Nc1ccccn1)c1c[nH]c2ccccc12 (centres unmarked) [Compound 4d]	9.2 ± 2.1 (≈ 29 µM)	5.8 ± 1.4 (≈ 18.3 µM)	–	–	37.8 ± 5.8 (≈ 119 µM)	28 ± 5.2 (≈ 88.2 µM)	–	–
c1ccc(NC(c2ccccn2)c2c[nH]c3ccccc23)nc1 (centres unmarked) [Compound 4l]	–	–	— (less than 50% inhibition)	— (less than 50% inhibition)	96.2 ± 15.5 (≈ 320 µM)	65.2 ± 9.1 (≈ 217 µM)	–	–
Cn1cc(C(Nc2ccccn2)c2ccccc2Cl)c2ccccc21 (centres unmarked) [Compound 4f]	14.4 ± 3.2 (≈ 41.4 µM)	–	–	— (less than 50% inhibition)	86.4 ± 7.4 (≈ 248 µM)	44 ± 5.1 (≈ 126 µM)	–	–
Clc1ccccc1C(Nc1ccccn1)c1c[nH]c2ccccc12 (centres unmarked) [Compound 4b]	5.1 ± 2.7 (≈ 15.3 µM)	7.4 ± 1.1 (≈ 22.2 µM)	–	–	18.6 ± 1.4 (≈ 55.7 µM)	22.8 ± 1.7 (≈ 68.3 µM)	–	–
